Source: patent US9776972B2, “Pyrazole derivatives as arginine methyltransferase inhibitors and uses thereof” (priority 2013, dated 2017)
Read-outs that look alike come from different tables or passages of the source.

Experiments:
human PRMT1 = target: T1, human PRMT1 (Homo sapiens, UniProt Q99873); experiment: PRMT1 Biochemical Assay (3H-SAM Flashplate, peptide substrate); settings: single experiment or average of multiple experiments
T1 construct: GST-tagged PRMT1; made in house; host or cells: High Five insect cells (baculovirus)
Outline: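 GST-tagged PRMT1 from baculovirus-infected cells, preincubated with compounds 30 min at room temperature in 20 mM Bicine pH 7.6, 1 mM TCEP, 0.005% BSG, 0.002% Tween 20. Reaction started with ³H-SAM plus biotinylated peptide, stopped with 300 µM cold SAM.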

[1] = test system: mono-methyl arginine in RKO cells; experiment: RKO Methylation Assay, In Cell Western (ICW) for mono-methyl arginine and DNA content; format: cell-based; settings: Homo sapiens, RKO, 72 h
Outline: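 After fixation, mono-methyl arginine and DNA (DRAQ5) were measured by infrared In-Cell Western imaging at 700/800 nm in RKO cells exposed to compounds for 72 hours. Percent activation used DMSO wells as minimum and 20 μM reference compound as maximum; EC30 curves fitted on triplicate wells.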

[2] = RKO cells, 72 hours, mono-methyl arginine, percent activation, single experiment or average of multiple experiments, read-out: EC30 (In Cell Western data, Numerical)
[3] = read-out: EC30 (In Cell Western data, Numerical, μM)

T1 sequence (Q99873 with tags, fused parts or gaps): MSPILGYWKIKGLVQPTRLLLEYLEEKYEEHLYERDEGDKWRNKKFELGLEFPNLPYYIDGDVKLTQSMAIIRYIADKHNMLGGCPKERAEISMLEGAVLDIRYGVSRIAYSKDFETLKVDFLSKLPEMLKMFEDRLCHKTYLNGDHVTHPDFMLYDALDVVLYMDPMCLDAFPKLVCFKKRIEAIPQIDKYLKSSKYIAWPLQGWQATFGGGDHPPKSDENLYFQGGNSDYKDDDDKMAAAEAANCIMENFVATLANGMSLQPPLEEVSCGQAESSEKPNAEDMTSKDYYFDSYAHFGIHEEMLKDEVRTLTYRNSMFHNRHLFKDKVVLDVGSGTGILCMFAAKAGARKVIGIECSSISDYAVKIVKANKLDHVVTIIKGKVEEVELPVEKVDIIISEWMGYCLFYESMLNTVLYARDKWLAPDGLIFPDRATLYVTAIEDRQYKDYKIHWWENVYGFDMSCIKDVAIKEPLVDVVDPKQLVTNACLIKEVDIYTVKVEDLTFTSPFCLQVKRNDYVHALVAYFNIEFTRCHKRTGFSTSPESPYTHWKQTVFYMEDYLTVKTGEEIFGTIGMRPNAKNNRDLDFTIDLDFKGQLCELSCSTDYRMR

Row | SMILES | IC50 (human PRMT1) | EC30 [1, 2] | EC30 [1, 3]
1 | CN(CCN)Cc1c[nH]nc1-c1ccc(Oc2ccc(F)cc2)cc1 [Compound 225, N^1-((3-(4-(4-fluorophenoxy)phenyl)-1H-pyrazol-4-yl)methyl)-N^1-methylethane-1,2-diamine] | 3.19 nM | 0.688 µM | –
2 | CNCCN(C)Cc1cnn(C2CC2)c1-c1ccc(F)cc1 [Compound 14] | 123 nM | 3.35 µM | –
3 | Cc1cc(-c2n[nH]cc2CN(C)CCN)cc(C)c1OC(C)C [Compound 199, N^1-((3-(4-isopropoxy-3,5-dimethylphenyl)-1H-pyrazol-4-yl)methyl)-N^1-methylethane-1,2-diamine] | 15.1 nM | 2.82 µM | –
4 | CNCCN(C)Cc1n[nH]cc1-c1ccc(OC(C)C)c(F)c1 [Compound 210] | 8.79 nM | 0.268 µM | –
5 | CN(CCN)Cc1c[nH]nc1-c1ccc2c(c1)OCC(=O)N2C [Compound 192] | 121 nM | > 20 µM | –
6 | CC(C)Cc1ccc(-c2c[nH]nc2CN(C)CCN)cc1 [Compound 170] | 11.4 nM | 1.39 µM | –
7 | CC(C)Oc1ccc(-c2c(CN(C)CCN)cnn2C)cc1 [Compound 177] | 10 nM | 0.295 µM | –
8 | CN(CCN)Cc1c[nH]nc1-c1ccc2c(c1)NC(=O)CO2 [Compound 173] | 167 nM | > 20 µM | –
9 | Cc1ccc(C#N)cc1-c1n[nH]cc1CN(C)CCN [Compound 158] | 2330 nM | > 20 µM | –
10 | CN(CCN)Cc1c(-c2ccc(C#N)cc2)ncn1C [Compound 222] | 1260 nM | > 20 µM | –
11 | Cc1ccc(-c2n[nH]cc2CN(C)CCN)cc1 [Compound 162] | 17 nM | 1.34 µM | –
12 | CN(CCN)Cc1c[nH]nc1-c1ccc(OC2CCOCC2)cc1 [Compound 178] | 8.28 nM | 0.954 µM | –
13 | CCN(C)C(=O)c1ccc(-c2n[nH]cc2CN(C)CCN)cc1 [Compound 163] | 115 nM | > 20 µM | –
14 | CN(CCN)Cc1c[nH]nc1-c1cc(Cl)ccc1F [Compound 156] | 243 nM | 9.56 µM | –
15 | NCCN(CCO)Cc1c[nH]nc1-c1ccc(F)cc1 [Compound 171] | 929 nM | > 20 µM | –
16 | CNCCN(C)Cc1c[nH]nc1-c1ccc(OC(C)C)c(F)c1 [Compound 181] | 4.96 nM | 0.046 µM | –
17 | CNCCN(C)Cc1c[nH]nc1-c1ccc(C(F)(F)F)cc1 [Compound 174] | 11.9 nM | 0.26 µM | –
18 | CC(C)Oc1cccc(-c2n[nH]cc2CN(C)CCN)c1 [Compound 187] | 146 nM | 7.07 µM | –
19 | Cc1ccccc1-c1n[nH]cc1CN(C)CCN [Compound 161] | 187 nM | 14.9 µM | –
20 | CNCCN(C)Cc1cn(C2CC2)nc1-c1ccc(F)cc1 [Compound 13] | 1500 nM | > 20 µM | –
21 | CNC(=O)c1cc(-c2n[nH]cc2CN(C)CCN)ccc1Oc1ccccc1 [Compound 227] | 24.3 nM | 15 µM | –
22 | CNCCN(C)Cc1n[nH]cc1-c1ccc(OC(C)C)c(Cl)c1 [Compound 212] | 6.46 nM | 0.238 µM | –

Row | SMILES | IC50 (human PRMT1) | EC30 [1, 2] | EC30 [1, 3]
23 | CNCCN(C)Cc1cn(C2CCCC2)nc1-c1ccc(OC(C)C)cc1 [Compound 214] | 51.9 nM | 2.25 µM | –
24 | CN(CCN1CCC1)Cc1c[nH]nc1-c1ccc(C#N)cc1 [Compound 185] | 1120 nM | > 20 µM | –
25 | CNCCN(C)Cc1cnn(C)c1-c1ccc(Oc2ccccc2)cc1 [Compound 208] | 4.16 nM | 0.696 µM | –
26 | CNCCN(C)Cc1cn(C(C)C)nc1-c1ccc(F)cc1 [Compound 15] | 4380 nM | > 20 µM | –
27 | CCNC(=O)c1cccc(-c2n[nH]cc2CN(C)CCN)c1 [Compound 197] | 678 nM | > 20 µM | –
28 | COCCOc1ccc(-c2n[nH]cc2CN(C)CCN)cc1 [Compound 167] | 9.28 nM | 0.845 µM | –
29 | CC(C)Oc1cc(-c2n[nH]cc2CN(C)CCN)ccc1F [Compound 188] | 163 nM | 12.3 µM | –
30 | Cc1cc(F)ccc1-c1n[nH]cc1CN(C)CCN [Compound 152] | 47.2 nM | 5.78 µM | –
31 | COc1cc(F)ccc1-c1n[nH]cc1CN(C)CCN [Compound 151] | 122 nM | 9.73 µM | –
32 | CN(CCN)Cc1c[nH]nc1-c1ccc(Oc2cccc(F)c2)cc1 [Compound 205] | 2.44 nM | 1.69 µM | –
33 | COCCCOc1ccc(-c2n[nH]cc2CN(C)CCN)cc1 [Compound 179] | 17.3 nM | 0.03 µM | –
34 | CN(CCN)Cc1c[nH]nc1-c1cc(C#N)ccc1Cl [Compound 147] | 2860 nM | > 20 µM | –
35 | COc1ccc(Cl)cc1-c1n[nH]cc1CN(C)CCN [Compound 157] | 1540 nM | > 20 µM | –
36 | CNCCN(C)Cc1cn(C)nc1-c1ccc(OC(C)C)c(Cl)c1 [Compound 206] | 7.07 nM | – | 1.16 µM
37 | C=CCn1ncc(CN(C)CCNC)c1-c1ccc(OC(C)C)cc1 [Compound 219] | 18.4 nM | 0.919 µM | –
38 | CN(CCN)Cc1n[nH]cc1-c1ccc(Oc2ccccc2)cc1 [Compound 203] | 4.28 nM | 1.72 µM | –
39 | CNCCN(C)Cc1cn(C)nc1-c1ccc(Oc2ccccc2)cc1 [Compound 207] | 6.16 nM | 2.31 µM | –
40 | CNCCN(C)Cc1cnn(C(C)C)c1-c1ccc(F)cc1 [Compound 16] | 2070 nM | – | > 20 µM
41 | CCN(C)C(=O)c1cccc(-c2n[nH]cc2CN(C)CCN)c1 [Compound 198] | 2170 nM | > 20 µM | –
42 | CN(CCN)Cc1c[nH]nc1-c1ccc(Oc2ccccc2)c(F)c1 [Compound 224, N^1-((3-(3-fluoro-4-phenoxyphenyl)-1H-pyrazol-4-yl)methyl)-N^1-methylethane-1,2-diamine] | 2.51 nM | – | 0.27 µM
43 | CN(CCN)Cc1c[nH]nc1-c1ccc(OCCCO)cc1 [Compound 195] | 11.4 nM | 7.18 µM | –

The remaining compounds from weak to strong by IC50 (human PRMT1), led by results:

Row | IC50 (human PRMT1) | SMILES | EC30 [1, 2] | EC30 [1, 3]
44 | 1600 nM | CN(CCN(C)C1CC1)Cc1c[nH]nc1-c1ccc(C#N)cc1 [Compound 184] | 2.41 µM | –
45 | 660 nM | COc1ccc(-c2n[nH]cc2CN(C)CCN)c(C(F)(F)F)c1 [Compound 154] | > 20 µM | –
46 | 655 nM | CC(C)CN1C(=O)COc2ccc(-c3n[nH]cc3CN(C)CCN)cc21 [Compound 191] | > 20 µM | –
47 | 307 nM | Cc1[nH]nc(-c2ccc(F)cc2)c1CN(C)CCN [Compound 169] | > 20 µM | –
48 | 227 nM | CN(CCN)Cc1c[nH]nc1-c1ccc(OCCN2CCOCC2)cc1 [Compound 172] | > 20 µM | –
49 | 210 nM | CN(CCN)Cc1c[nH]nc1-c1ccc2c(c1)N(C)C(=O)CO2 [Compound 196] | > 20 µM | –
50 | 167 nM | COc1ccc(F)cc1-c1n[nH]cc1CN(C)CCN [Compound 160] | 17.7 µM | –
51 | 121 nM | CN(CCN)Cc1c[nH]nc1-c1ccc(C(F)(F)F)cc1F [Compound 148] | 7.3 µM | –
52 | 107 nM | CC(C)CN(C)C(=O)c1ccc(-c2n[nH]cc2CN(C)CCN)cc1 [Compound 164] | 18.5 µM | –
53 | 71.5 nM | CCOC(=O)c1cccc(-c2n[nH]cc2CN(C)CCN)c1 [Compound 150] | 6.66 µM | –
54 | 61 nM | CN(CCN)Cc1c[nH]nc1-c1cccc(N(C)C)c1 [Compound 149] | 4.32 µM | –
55 | 58.4 nM | C=CCn1cc(CN(C)CCNC)c(-c2ccc(OC(C)C)cc2)n1 [Compound 218] | 5.74 µM | –
56 | 36.2 nM | CNCCN(C)Cc1cn[nH]c1-c1cc(F)cc(F)c1 [Compound 18] | – | –
57 | 26.8 nM | CN(CCN)Cc1c[nH]nc1-c1ccc(Oc2ccccc2)c(C(=O)N(C)C)c1 [Compound 226] | > 20 µM | –
58 | 26.6 nM | CCn1cc(CN(C)CCNC)c(-c2ccc(OC(C)C)cc2)n1 [Compound 213] | 0.708 µM | –
59 | 21.8 nM | COc1ccc(-c2n[nH]cc2CN(C)CCN)cc1 [Compound 153] | 1.39 µM | –
60 | 21.1 nM | CNCCN(C)Cc1cnn(C2CCOC2)c1-c1ccc(OC(C)C)cc1 (stereo not drawn) [Compound 216] | 0.726 µM | –
61 | 14.2 nM | CN(CCN)Cc1c[nH]nc1-c1ccc(OCCO)cc1 [Compound 194] | 17 µM | –
62 | 11.6 nM | CC(C)Oc1ccc(-c2nn(C)cc2CN(C)CCN)cc1 [Compound 176] | 0.882 µM | –
63 | 10.5 nM | CNCCN(C)Cc1c[nH]nc1-c1ccc(OC2CCOCC2)cc1 [Compound 175] | 0.174 µM | –
64 | 7.27 nM | CCOc1ccc(-c2n[nH]cc2CN(C)CCN)cc1 [Compound 166] | 0.434 µM | –
65 | 6.47 nM | CNCCN(C)Cc1c[nH]nc1-c1ccc(Oc2ccccc2)c(C#N)c1 [Compound 221] | 0.413 µM | –
66 | 6.08 nM | CC(C)Oc1ccc(-c2c[nH]nc2CN(C)CCN)cc1Cl [Compound 211] | 0.523 µM | –
67 | 5.55 nM | CNCCN(C)Cc1c[nH]nc1-c1ccc(OCCCOC)c(Cl)c1 [Compound 228] | 0.279 µM | –
68 | 5.29 nM | CNCCN(C)Cc1c[nH]nc1-c1ccc(OCCCOC)cc1 [Compound 209] | 0.557 µM | –
69 | 4.75 nM | CNCCN(C)Cc1c[nH]nc1-c1ccc(Cl)c(F)c1 [Compound 182] | 0.179 µM | –
70 | 4.27 nM | CN(CCN)Cc1c[nH]nc1-c1ccc(Oc2ccccc2)c(C#N)c1 [Compound 202] | 0.941 µM | –
71 | 3.15 nM | CNCCN(C)Cc1n[nH]cc1-c1ccc(Oc2ccccc2)cc1 [Compound 204] | 0.801 µM | –
